Data taken from patent publication US11624093B2, “Tumor suppressor and oncogene biomarkers predictive of anti-immune checkpoint inhibitor response” (Dana-Farber Cancer Institute, Inc., priority 2014, dated 2023).

Experiments:
[1] = system: lung tumors of Kras^G12D mice; assay: MRI lung tumor volume quantification in Kras^G12D mice treated with the arginase inhibitor; type: in vivo, mouse; settings: 30 mg/kg once daily gavage, 1 week
Excerpt: (§1) All EGFR transgenic mice carrying tetracycline inducible human EGFR cDNA were previously generated, crossed with CC10-RTTA mice expressing reverse tetracycline activator from lung Clara cell CC10 promoter, and maintained in mixed background. Double positive progeny were fed with doxycycline diet starting at 5-6 weeks of age for the induction of tumors and maintained on doxycyline throughout the study. EGFR and KrasG12D mice were maintained in mixed (C57Bl/6, FVB, and S129) background and given adeno virus expressing Cre recombinase (5×10^6 titer) intranasally at 5 weeks of age for induction of recombination and tumor formation. All breedings and in vivo experiments were performed with the approval of the DFC1 Animal Care and Use Committee.
(§2) The arginase inhibitor (R)-2-Amino-6-borono-2-(2-(piperidin-1-yl)ethyl)hexanoic acid, also known as compound HY-15775/compound 9, was obtained from MedChem Express and is well known in the art (see, for example, Van Zandt et al. (2013) J. Med. Chem. 56:2568-2580). The compound was administered to mice at 30 mg/kg in phosphate-buffered saline (PBS) via oral gavage once daily.
Animals were anesthetized with 1.5-2% isoflurane (IsoFlo; Abbott) in 100% oxygen. […] Tumor volume quantifications were performed using 3D-Slicer software as described in Weaver et al. (2012) Cancer Res. 72:921-933.

[2] = system: Kras mutant mice, total lung and tumor infiltrating immune cells; assay: Immune cell analysis of lungs of Kras mutant mice treated with the arginase inhibitor; type: in vivo, mouse; settings: 30 mg/kg once daily gavage, 1 week
Excerpt: as §1, §2
Total lung cell and tumor infiltrating immune cell characterization was performed as described in Akbay et al. (2013) Cancer Discov. 3:1355-1363.

N[C@](CCCCB(O)O)(CCN1CCCCC1)C(=O)O [compound 9/HY-15775, (R)-2-Amino-6-borono-2-(2-(piperidin-1-yl)ethyl)hexanoic acid]
lung tumor volumes (change compared to baseline, MRI) [1]: decreases
CD8 T cells in the total T cell population [2]: increase
CD11c and CD11b myeloid populations [2]: no change
ratio of CD4 T cells in the total T cell population [2]: decrease
ratio of CD8 to FoxP3 cells (cytotoxic T cells to regulatory T cells) [2]: increase
total T cell counts [2]: increase
